According to publication PMC5048153 (Scientific Reports, 2016):

How the values were obtained:
SD rats = assay: Open field locomotor activity; format: in vivo, rat; details: ig. 32 mg/kg/day, days 2–15, vs untreated rats
Description: The detailed procedures were performed according to our previous studies. In brief, each SD rat was placed at the center of the open field (50 × 50 cm^2 chamber, 50-cm-high walls, with a 25 cm^2 area in the middle of floor defined as the central square) for 6 min in a quiet room. The animals were gently placed in the center of the platform and were allowed to explore the surroundings. A camera was installed above the center of the field. Immediately after a rat was placed at the center in the open field, the movements and position of the animals were recorded and registered automatically by computerized system. Next test was performed after cleaning the chamber. The traveled tracks of rats were recorded for 6 minutes and the videos of the last 4 minutes were analyzed also by Xeye Animal behavior analysis system.

[1] = test system: corticosterone injured PC12 cells; assay: Real-time PCR NGF mRNA level; format: cell-based, rat; details: 200 µM corticosterone and 5 µM drug
[2] = test system: corticosterone injured PC12 cells; assay: Hoechst 33258 staining (apoptosis); format: cell-based, rat; details: 200 µM corticosterone and 5 µM drug
Description: To detect apoptotic cells, drug treated cells were stained with the DNA dye Hoechst 33258. Cells with the indicated treatment were fixed with methanol for 10 min at 4 °C before incubation with Hoechst 33258 for 10 min at room temperature. After washes with PBS, the apoptotic cells were mounted onto slides and observed under the fluorescence microscope BX61 (Olympus, Japan). Images were captured using DP71 CCD digital camera (Olympus).

rat hippocampus [3] = assay: Cell survival, proliferation and maturation in the rat hippocampus; format: in vivo; details: rats, 21 days
Description: (§1) The detailed procedures were performed according to the reported literatures.
Wistar rats were used herein. Agomelatine were purchased from Dalian Meilun Biotech Company. […] For cell proliferation study, BrdU (200 mg/kg i.p.) was administered 2 h before perfusion. For cell maturation and survival studies, animals received five injections of BrdU (75 mg/kg, 2 h intervals) the first day of treatment and were killed 21 days later. […] was randomly selected 8 visual fields for statistical analysis.

rat hippocampus [4] = assay: BDNF, VEGF and IGF-1 level in vivo (ELISA); details: 21-day treatment, i.p. 40 mg/kg, vs vehicle-treated group
Description: as §1
SD rats were killed by decapitation and hippocampi were dissected out and stored at −80 °C until use. Tissue samples were homogenized at 4 °C in Promega lysis buffer for ELISA. Samples were then sonicated and lysates were cleared by centrifugation at 4 °C, 15 000 g. Protein concentrations were determined according to the Bradford assay using bovine serum albumin as standard. Quantifications of VEGF and IGF-1 proteins were measured with Quantikine M mouse VEGF and IGF-1enzyme immunoassay kits and BDNF protein with a mouse ELISA kit.

hERG K^+ channel = target: T1, hERG K^+ channel (Homo sapiens, UniProt Q12809); assay: hERG K+ channel inhibition (QPatch); format: cell-based; details: hERG-expressing CHO cells, Qpatch 16X assay
T1 construct: expressed in transfected cells
T1 sequence (Q12809 whole entry): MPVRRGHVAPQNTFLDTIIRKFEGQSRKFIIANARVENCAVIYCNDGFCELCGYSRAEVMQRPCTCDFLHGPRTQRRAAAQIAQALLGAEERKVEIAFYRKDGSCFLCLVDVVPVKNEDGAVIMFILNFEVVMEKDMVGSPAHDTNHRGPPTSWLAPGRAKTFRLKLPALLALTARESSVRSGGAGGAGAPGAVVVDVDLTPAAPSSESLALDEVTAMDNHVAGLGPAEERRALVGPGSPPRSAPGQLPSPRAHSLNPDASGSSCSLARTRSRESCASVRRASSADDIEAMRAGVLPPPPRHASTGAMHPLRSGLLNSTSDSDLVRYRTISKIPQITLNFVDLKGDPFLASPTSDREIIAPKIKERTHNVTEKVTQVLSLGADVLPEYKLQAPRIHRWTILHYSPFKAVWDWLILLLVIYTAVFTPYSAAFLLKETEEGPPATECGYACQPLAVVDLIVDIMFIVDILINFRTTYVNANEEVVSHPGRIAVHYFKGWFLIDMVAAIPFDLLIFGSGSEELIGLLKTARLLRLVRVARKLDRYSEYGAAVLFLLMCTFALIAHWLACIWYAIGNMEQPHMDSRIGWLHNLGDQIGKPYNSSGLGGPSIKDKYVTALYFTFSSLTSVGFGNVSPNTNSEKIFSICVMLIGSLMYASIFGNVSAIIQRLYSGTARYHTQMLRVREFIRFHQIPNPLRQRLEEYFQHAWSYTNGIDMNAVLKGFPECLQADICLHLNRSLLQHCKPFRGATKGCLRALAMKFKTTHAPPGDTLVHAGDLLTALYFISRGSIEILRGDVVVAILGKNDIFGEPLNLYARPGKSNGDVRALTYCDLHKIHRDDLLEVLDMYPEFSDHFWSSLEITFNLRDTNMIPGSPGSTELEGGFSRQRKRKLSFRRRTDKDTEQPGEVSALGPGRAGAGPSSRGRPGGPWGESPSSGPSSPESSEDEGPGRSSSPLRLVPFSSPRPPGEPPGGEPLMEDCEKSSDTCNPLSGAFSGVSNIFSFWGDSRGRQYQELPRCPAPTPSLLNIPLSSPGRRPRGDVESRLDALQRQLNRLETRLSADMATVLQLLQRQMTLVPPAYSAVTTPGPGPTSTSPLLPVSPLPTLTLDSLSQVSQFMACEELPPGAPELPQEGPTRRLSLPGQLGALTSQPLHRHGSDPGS
Description: In brief, A Chinese hamster ovary (CHO) cell line stably expressing hERG potassium channels were cultured into appropriate cell density. Then cells were automatically prepared for application to chips. Whole-cell recordings were performed using automated QPatch (Sophion) and the data were analyzed using Assay Software provided by Graphpad Prism 5.0.

Compound	improved travelled distance (SD rats) [%]	NGF mRNA level [1]	apoptosis of PC12 cells induced by corticosterone [2]	number of BrdU-labeled neuron cells (proliferation) (rat hippocampus [3]; i.p. 40 mg/kg once daily)	number of BrdU-labeled neuron cells (survival) (rat hippocampus [3]; i.p. 40 mg/kg once daily)	expression of PSA-NCAM compared with vehicle-treated group (rat hippocampus [3]; i.p. 40 mg/kg)	number of NeuN cells compared with vehicle-treated group (rat hippocampus [3]; i.p. 40 mg/kg)	number of PSA-NCAM-labeled cells relative to Agomelatine group (rat hippocampus [3]; i.p. 40 mg/kg)	hippocampal IGF-1 level (rat hippocampus [4])	hippocampal VEGF level (rat hippocampus [4])	IC50 (hERG K^+ channel) [µM]
COc1ccc2c(c1)C(CCNC(C)=O)=NCC2.O=C(O)C(=O)O [6a-1, N-(2-(7-Methoxy-3,4-dihydroisoquinolin-1-yl)ethyl) acetamide oxalate]	131.2	does not change	effectively reversed apoptosis	remarkably increased	remarkably increased	reduced the expression of PSA-NCAM	significant (P < 0.001) increase	approximately three-fold decrease	neither compound 6a-1 nor Agomelatine exerted any influence	neither compound 6a-1 nor Agomelatine exerted any influence	> 40
COc1ccc2cccc(CCNC(C)=O)c2c1 [Agomelatine, reference compound]	91.2					reduced the expression of PSA-NCAM			neither compound 6a-1 nor Agomelatine exerted any influence	neither compound 6a-1 nor Agomelatine exerted any influence	
